In patent US6338963B1, “Use of carbon monoxide dependent guanylyl cyclase modifiers to stimulate neuritogenesis” (NeoTherapeutics, Inc., priority 1994, dated 2002):

How the values were obtained:
[1] = test system: MAP kinases ERK1 (44 kDa) and ERK2 (42 kDa); test: Western blot of phospho-ERK1/2 in cultured astrocytes; format: cell-based, rat; conditions: for activation (phosphorylation) of MAP kinases ERK1 and ERK2: astrocyte cytosolic proteins
Description: In FIG. 60, the activation of MAP kinases ERK1 (44 kDa) and ERK2 (42 kDa) by guanosine is shown. Cultured astrocytes were harvested at 4° C. in lysis buffer specific for MAP kinase: 25 mM Tris buffer, pH 7.4, containing 150 mM NaCl, 100 μM sodium orthovanadate, 1.5 mM MgCl2, 1.0 mM EDTA, 1% NP40, 10% glycerol, 1 mM PMSF, 5 μg/ml leupeptin, and 10 μg/ml aprotinin and sonicated and centrifuged at 14,000 rpm for 5 min. Aliquots of the supernatants were processed for the assessment of protein concentration (M. M. Bradford, “A Rapid and Sensitive Method for the Quantitation of Microgram Quantities of Protein Using the Principle of Protein-Dye Binding,” Anal. Biochem. 72: 248-254 (1976)). Electrophoresis was performed in 12% SDS-PAGE, using 20 μg of total protein per lane and separated proteins were then transferred onto a PVDF membrane (Bio-Rad Laboratories, Italy). Membranes were first incubated with polyclonal primary antibody (rabbit phospho-ERK1/2 antibody, New England Biolabs, Germany; final dilution 1:1000) for 1 hour and then with donkey anti-rabbit HPR-conjugated secondary antibody (Amersham, Italy; final dilution 1:5000) for another 1 hour, both at room temperature. Immunocomplexes were visualized using the enhancing chemiluminescence detection system (ECL) (Amersham, Italy).
This activation was no longer evident after 10 minutes or 20 minutes of stimulation. […] This effect is likely independent of the activity of growth factors, such as NGF, that also act through this molecular pathway. Cultured astrocytes were harvested at 4° C. in lysis buffer specific for MAP kinase: 25 mM Tris buffer, pH 7.4, containing 150 mM NaCl, 100 μM sodium orthovanadate, 1.5 mM MgCl2, 1.0 mM EDTA, 1% NP40, 10% glycerol, 1 mM PMSF, 5 μg/ml leupeptin, and 10 μg/ml aprotirin and sonicated and centrifuged at 14,000 prm for 5 min. Aliquots of the supernatants were processed for the assessment of protein concentration (Bradford, 1976). […]

[2] = test system: cGMP levels in PC12 cells; test: cGMP levels in PC12 cells (radioimmunoassay); format: cell-based, rat; conditions: NGF-primed PC12 cells
Description: Initially, PC-12 cells were primed with 40 ng/ml NGF for 3 days in low serum medium (1.5% horse serum+5% fetal calf serum). Cells were seeded onto assay plates in low serum medium containing 40 ng/ml NGF and incubated for 1 hour. The medium was changed to low arginine medium (80 μM) with no serum and NGF and papaverine ([…]) where indicated. Test compounds were added for the indicated time and the reaction was stopped by adding 5% TCA containing 10,000 dpm of ^3H-cGMP. cGMP was assayed by the radioimmunoassay method of Maurice (Mol. Pharmacol. 37: 671-681, 1990). TCA was purified by adding powdered charcoal (5 g) and filtering the mixture through Whatman #1 paper. This removed contaminants in the TCA that otherwise interfere with the radioimmunoassay (RIA) of cGMP.
It was necessary to purify the cGMP from cAMP and other contaminants before radioimmunoassay since these other materials can interfere with the assay. Briefly, the TCA solution was applied to Dowex columns (50W-8X, 200-400 mesh) and eluted. A neutral alumina column was then placed under each Dowex column. The cGMP was eluted from the Dowex columns into neutral alumina columns by adding 4 mL of 0.05 M HCl to each Dowex column. The neutral alumina columns were then sequentially rinsed with 2 ml of HCl, 4 mL water and finally with 0.2 M sodium acetate (pH 6.2). The cGMP collected for the RIA eluted in 1 ML of sodium acetate with a recovery between 50-65%. The cGMP was assayed using a Dupont RIA kit.

[3] = test system: NGF; test: NGF release from rat cultured astrocytes (ELISA); format: cell-based; conditions: for release of NGF from astrocytes: exposure for 24 hours
Description: The dose response for AIT-082 and guanosine on nerve growth factor and S100β protein release from rat culture astrocytes is shown in FIG. 30. NGF was assayed by a double-site ELISA, using a monoclonal anti-NGF antibody, coupled or not to β-galactosidase according to the method of I. D. Laviada et al., “Phosphatidylcholine-Phospholipase C Mediates the Induction of Nerve Growth Factor in Cultured Glial Cells,” FEBS Lett. 364: 301-304 (1995).
The NGF and S100β protein were measured by removing the cultured medium for the ELISA assays at each indicated time point.
NGF and TGFβ2 levels were assayed in the culture medium of the astrocytes by specific ELISA assays using kits from Roche (Germany) and Promega (USA) respectively. NGF basal levels were 56.3±3.2 pg/ml. TGFβ2 levels were 9.1±0.06 pg/ml.
In FIG. 61, the dose-response curves of NGF and TGFβ2 release from rat cultured astrocytes as the result of exposure to AIT-082 are shown.

[4] = test system: NGF; test: Western blot of astrocyte cytosolic proteins: NGF; format: cell-based, rat
Description: Western blot analysis of cytosolic proteins from cultured astrocytes was performed to detect the factors NGF and TGFβ2. The results are shown in FIG. 58A for NGF at 6 and 12 hours and in FIG. 58B for TGFβ2 at 6 and 12 hours.
Western blot analysis of cytosolic proteins deriving from cultured astrocytes treated for 6 or 12 hours with 100 μM AIT-082 was performed. AIT-082 is able to promote the production of neurotrophic factors from rat cultured astrocytes as measured by Western blot analysis. The results are shown in FIG. 62A for NGF and in FIG. 62B for TGFβ2. Electrophoresis was performed in 12% (for NBF) or 15% (for TGFβ2) SDS-PAGE (20 μg of total protein per lane). The separated proteins were transferred onto a PVDF membrane (Bio-Rad Laboratories, Italy).

Structure (SMILES) | time of maximal activation of the enzyme cascade ([1]; AIT-082 100 μM, no longer evident after 10 or 20 minutes) | activation (phosphorylation) of MAP kinases ERK1 and ERK2 [1] | cGMP in PC12 cells [2] | time after exposure at which release of NGF was enhanced ([3]; AIT-082 100 μM) | time of maximum release of NGF ([3]; AIT-082 100 μM) | release of NGF from astrocytes [3] | increase of NGF production as compared to a control ([3]; rat cultured astrocytes) | intracellular levels of NGF ([4]; 100 μM AIT-082, 6 or 12 hours) | intracellular content of NGF ([4]; guanosine, 6 and 12 hours)
O=C(CCn1cnc2c(=O)[nH]cnc21)Nc1ccc(C(=O)O)cc1 [AIT-082, N-4-carboxyphenyl-3-(6-oxohydropurin-9-yl)propanamide] | 5 min | stimulated the phosphorylation of MAP kinases ERK1 (44 kDa) and ERK2 (42 kDa) | increased the production of cGMP | 12 h | 24 h | dose-dependent increase | about 2.5 fold | increased in time-dependent manner | –
Nc1nc2c(ncn2[C@@H]2O[C@H](CO)[C@@H](O)[C@H]2O)c(=O)[nH]1 [guanosine] | – | activation | increased intracellular cGMP | – | – | dose-dependent increase | – | – | increased the intracellular content of NGF and TGFβ2 in time-dependent fashion
